Twelve compounds from patent publication US9169260B2 (MERCK SHARP & DOHME CORP., priority 2011, dated 2015) can be followed below.

Bounds are passed on as bounds.

GST tagged IRAK-4, sequence (Q9NWZ3 whole entry): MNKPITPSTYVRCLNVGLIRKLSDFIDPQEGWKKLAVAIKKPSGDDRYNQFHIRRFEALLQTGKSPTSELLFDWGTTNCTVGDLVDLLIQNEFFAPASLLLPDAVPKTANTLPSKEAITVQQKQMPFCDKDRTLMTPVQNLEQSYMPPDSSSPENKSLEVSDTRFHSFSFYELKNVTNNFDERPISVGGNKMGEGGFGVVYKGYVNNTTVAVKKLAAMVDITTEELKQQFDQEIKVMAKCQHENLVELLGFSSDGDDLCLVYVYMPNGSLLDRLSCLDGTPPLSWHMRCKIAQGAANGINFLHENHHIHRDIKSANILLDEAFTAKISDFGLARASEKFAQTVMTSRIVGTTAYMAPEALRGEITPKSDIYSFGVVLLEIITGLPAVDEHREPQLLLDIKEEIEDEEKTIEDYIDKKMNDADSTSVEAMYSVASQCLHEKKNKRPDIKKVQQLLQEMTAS

The first assay concerns the target GST tagged IRAK-4 (Homo sapiens (Human), UniProt Q9NWZ3). In words: IRAK-4 Kinase Assay (IMAP fluorescence polarization). Particulars: 100 μM ATP, 30 minutes at 25° C. Format: biochemical. Summed up:
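Activity was read by IMAP fluorescence polarization, where phosphopeptide binding to M(III) nanoparticles raises FP. The 30-minute, 25° C reaction used 100 μM ATP, 100 nM RP7030 substrate and 0.5 nM GST-IRAK-4 in pH 7.2 Tris buffer with MgCl2, DTT and Tween 20.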
On the technique in general: In fluorescence polarisation assays a small probe gives low polarisation when free and higher when bound to something large.
In the case of `COCC(C)N1CCC(c2cc(NC(=O)c3cnn4cccnc34)n(-c3ccc(C)cc3)n2)CC1` (stereo not drawn) [Example 211, N-(3-(1-(1-methoxypropan-2-yl)piperidin-4-yl)-1-(p-tolyl)-1H-pyrazol-5-yl)pyrazolo[1,5-a]pyrimidine-3-carboxamide], the half-inhibitory concentration (IC50) (as a rule, the point on the concentration scale where inhibition reaches its midpoint) was less than 0.1 µM.

`Cc1ccc(-n2nc(C3CCC(N)CC3)cc2NC(=O)c2cnn3cccnc23)nc1` (stereo not drawn) [Example 185, N-(3-(4-aminocyclohexyl)-1-(5-methylpyridin-2-yl)-1H-pyrazol-5-yl)pyrazolo[1,5-a]pyrimidine-3-carboxamide] yielded an IC50 of less than 0.1 µM.

In the case of `CNC(=O)c1ccc(-c2cc(NC(=O)c3cnn4cccnc34)n(-c3ccc(C)cc3)n2)cc1` [Example 348, N-{3-[4-(methylcarbamoyl)phenyl]-1-(4-methylphenyl)-1H-pyrazol-5-yl}pyrazolo[1,5-a]pyrimidine-3-carboxamide], the concentration for half-maximal inhibition (IC50) was less than 0.1 µM.

With `C[C@@H](N)c1ccc(-n2nc(C3CCN(S(C)(=O)=O)CC3)cc2NC(=O)c2cnn3cccnc23)nc1` [Example 163, (R)—N-(1-(5-(1-aminoethyl)pyridin-2-yl)-3-(1-(methylsulfonyl)piperidin-4-yl)-1H-pyrazol-5-yl)pyrazolo[1,5-a]pyrimidine-3-carboxamide], the half-maximal inhibitory concentration (IC50) was less than 0.1 µM.

As for `Cc1ccc(-n2nc(N3CCN(C4CCCCC4)CC3)cc2NC(=O)c2cnn3cccnc23)nc1` [Example 319, N-[3-(4-cyclohexylpiperazin-1-yl)-1-(5-methylpyridin-2-yl)-1H-pyrazol-5-yl]pyrazolo[1,5-a]pyrimidine-3-carboxamide], the concentration for half-maximal inhibition (IC50) is less than 0.1 µM.

For `Cc1ccc(-n2nc(C3=CCN(C)CC3)cc2NC(=O)c2cnn3cccnc23)cc1` [Example 140, N-(3-(1-methyl-1,2,3,6-tetrahydropyridin-4-yl)-1-(p-tolyl)-1H-pyrazol-5-yl)pyrazolo[1,5-a]pyrimidine-3-carboxamide], the IC50 is less than 0.1 µM.

For the compound `Cc1ccc(-n2nc(C3CCN(Cc4ccn[nH]4)CC3)cc2NC(=O)c2cnn3cccnc23)cc1` [Example 230, N-{1-(4-methylphenyl)-3-[1-(1H-pyrazol-5-ylmethyl)piperidin-4-yl]-1H-pyrazol-5-yl}pyrazolo[1,5-a]pyrimidine-3-carboxamide], the IC50 is less than 0.1 µM.

In turn, `Cc1ccc(-n2nc(C3CCN(C4CCC(C#N)CC4)CC3)cc2NC(=O)c2cnn3cccnc23)nc1` (stereo not drawn) [Example 265, N-{3-[1-(4-cyanocyclohexyl)piperidin-4-yl]-1-(5-methylpyridin-2-yl)-1H-pyrazol-5-yl}pyrazolo[1,5-a]pyrimidine-3-carboxamide] had an IC50 of less than 0.1 µM.

Staying with this assay, now noted: 100 μM ATP, 30 minutes at 25° C.; μM.
Compound `Cc1ccc(-n2nc(C3CC3)cc2NC(=O)c2cnn3cccnc23)nc1` [Example 180, N-(3-cyclopropyl-1-(5-methylpyridin-2-yl)-1H-pyrazol-5-yl)pyrazolo[1,5-a]pyrimidine-3-carboxamide] yielded a 50% inhibitory concentration (IC50) greater than 1 µM.

In turn, `Cc1ccc(-n2nc(C3CCC(C(=O)O)CC3)cc2NC(=O)c2cnn3cccnc23)cc1` (stereo not drawn) [Example 94, 4-(5-(pyrazolo[1,5-a]pyrimidine-3-carboxamido)-1-(p-tolyl)-1H-pyrazol-3-yl)cyclohexanecarboxylic acid] returned an IC50 greater than 1 µM.

The compound `CCCS(=O)(=O)N1CCC(c2cc(NC(=O)c3cnn4cccnc34)n(-c3ccc(C)cc3)n2)CC1` [Example 361, N-{1-(4-methylphenyl)-3-[1-(propylsulfonyl)piperidin-4-yl]-1H-pyrazol-5-yl}pyrazolo[1,5-a]pyrimidine-3-carboxamide] showed an IC50 of less than 1 µM.

`Cc1ccc(-n2nc(C3CCN(S(=O)(=O)c4ccc(F)cc4)CC3)cc2NC(=O)c2cnn3cccnc23)cc1` [Example 366, N-[3-{1[(4-fluorophenyl)sulfonyl]piperidin-4-yl}-1-(4-methylphenyl)-1H-pyrazol-5-yl]pyrazolo[1,5-a]pyrimidine-3-carboxamide] yielded a concentration for half-maximal inhibition (IC50) of less than 1 µM.
